Source: PubChem BioAssay (NCI)
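Protocol summary: plate cells (96-well), add compound at 5 concentrations, incubate 48 h, interpolate endpoints linearly. GI50 = concentration required for 50% inhibition of growth. At the TGI there is no net growth.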

How the values were obtained:
Test in all cases: inhibition of tumour cell growth, NCI panel, 48 h
OVCAR-8 ovarian = system: OVCAR-8 ovarian
HCC-2998 colon = system: HCC-2998 colon
OVCAR-3 ovarian = system: OVCAR-3 ovarian
SF-268 CNS = system: SF-268 CNS
M14 melanoma = system: M14 melanoma
OVCAR-4 ovarian = system: OVCAR-4 ovarian
SNB-75 CNS = system: SNB-75 CNS
EKVX NSCLC = system: EKVX NSCLC
HT29 colon = system: HT29 colon
SR leukemia = system: SR leukemia
SN12C renal = system: SN12C renal
MCF7 breast = system: MCF7 breast
PC-3 prostate = system: PC-3 prostate
K-562 leukemia = system: K-562 leukemia
SK-MEL-2 melanoma = system: SK-MEL-2 melanoma
A498 renal = system: A498 renal
SK-OV-3 ovarian = system: SK-OV-3 ovarian
786-0 renal = system: 786-0 renal
SNB-19 CNS = system: SNB-19 CNS
HCT-116 colon = system: HCT-116 colon
SK-MEL-5 melanoma = system: SK-MEL-5 melanoma
COLO 205 colon = system: COLO 205 colon
CCRF-CEM leukemia = system: CCRF-CEM leukemia
MALME-3M melanoma = system: MALME-3M melanoma
OVCAR-5 ovarian = system: OVCAR-5 ovarian
BT-549 breast = system: BT-549 breast
NCI-H226 lung = system: NCI-H226 lung
SF-539 CNS = system: SF-539 CNS
HS 578T breast = system: HS 578T breast
NCI-H460 lung = system: NCI-H460 lung
MDA-MB-231 breast = system: MDA-MB-231 breast
HOP-62 NSCLC = system: HOP-62 NSCLC
KM12 colon = system: KM12 colon
TK-10 renal = system: TK-10 renal
UACC-62 melanoma = system: UACC-62 melanoma
CAKI-1 renal = system: CAKI-1 renal
U251 CNS = system: U251 CNS
DU-145 prostate = system: DU-145 prostate
NCI/ADR-RES ovarian = system: NCI/ADR-RES ovarian
RPMI-8226 leukemia = system: RPMI-8226 leukemia
NCI-H23 lung = system: NCI-H23 lung
ACHN renal = system: ACHN renal
UACC-257 melanoma = system: UACC-257 melanoma
LOX IMVI melanoma = system: LOX IMVI melanoma
SW-620 colon = system: SW-620 colon
A549 NSCLC = system: A549 NSCLC
T-47D breast = system: T-47D breast
IGROV1 ovarian = system: IGROV1 ovarian
UO-31 renal = system: UO-31 renal
SK-MEL-28 melanoma = system: SK-MEL-28 melanoma
HL-60(TB) leukemia = system: HL-60(TB) leukemia
MDA-MB-435 = system: MDA-MB-435
RXF 393 renal = system: RXF 393 renal
HCT-15 colon = system: HCT-15 colon
HOP-92 NSCLC = system: HOP-92 NSCLC
MOLT-4 leukemia = system: MOLT-4 leukemia
SF-295 CNS = system: SF-295 CNS
MDA-MB-468 breast = system: MDA-MB-468 breast
NCI-H522 lung = system: NCI-H522 lung

CCOP(=O)(CC(F)(F)C(F)(F)F)OCC
GI50 (OVCAR-8 ovarian): 3.79 µM
TGI (OVCAR-8 ovarian): 55.3 µM
GI50 (HCC-2998 colon): 12.2 µM
TGI (HCC-2998 colon): 25.2 µM
GI50 (OVCAR-3 ovarian): 2760 nM
TGI (OVCAR-3 ovarian): 7.98 µM
GI50 (SF-268 CNS): 17.9 µM
TGI (SF-268 CNS): 54.4 µM
GI50 (M14 melanoma): 2020 nM
TGI (M14 melanoma): 5.31 µM
GI50 (OVCAR-4 ovarian): 8.98 µM
TGI (OVCAR-4 ovarian): 23.9 µM
GI50 (SNB-75 CNS): 1950 nM
TGI (SNB-75 CNS): 36.7 µM
GI50 (EKVX NSCLC): 3.17 µM
TGI (EKVX NSCLC): 12.6 µM
GI50 (HT29 colon): 2250 nM
TGI (HT29 colon): 4.96 µM
GI50 (SR leukemia): 2400 nM
TGI (SR leukemia): 11.5 µM
GI50 (SN12C renal): 16.6 µM
TGI (SN12C renal): 42.2 µM
GI50 (MCF7 breast): 2450 nM
TGI (MCF7 breast): 12.1 µM
GI50 (PC-3 prostate): 4.6 µM
TGI (PC-3 prostate): 25.6 µM
GI50 (K-562 leukemia): 2620 nM
TGI (K-562 leukemia): 17.9 µM
GI50 (SK-MEL-2 melanoma): 17.3 µM
TGI (SK-MEL-2 melanoma): 39.2 µM
GI50 (A498 renal): 19.7 µM
TGI (A498 renal): 37 µM
GI50 (SK-OV-3 ovarian): 27.4 µM
TGI (SK-OV-3 ovarian): 74.8 µM
GI50 (786-0 renal): 4.2 µM
TGI (786-0 renal): 16.8 µM
GI50 (SNB-19 CNS): 26.2 µM
TGI (SNB-19 CNS): > 100 µM
GI50 (HCT-116 colon): 1860 nM
TGI (HCT-116 colon): 4.86 µM
GI50 (SK-MEL-5 melanoma): 3.38 µM
TGI (SK-MEL-5 melanoma): 13.7 µM
GI50 (COLO 205 colon): 1840 nM
TGI (COLO 205 colon): 3.43 µM
GI50 (CCRF-CEM leukemia): 2900 nM
TGI (CCRF-CEM leukemia): 15.8 µM
GI50 (MALME-3M melanoma): 1830 nM
TGI (MALME-3M melanoma): 3.62 µM
GI50 (OVCAR-5 ovarian): 17.6 µM
TGI (OVCAR-5 ovarian): 32.5 µM
GI50 (BT-549 breast): 4.17 µM
TGI (BT-549 breast): 20.5 µM
GI50 (NCI-H226 lung): 16.5 µM
TGI (NCI-H226 lung): 58.2 µM
GI50 (SF-539 CNS): 2020 nM
TGI (SF-539 CNS): 4.75 µM
GI50 (HS 578T breast): 5.55 µM
TGI (HS 578T breast): 94 µM
GI50 (NCI-H460 lung): 17 µM
TGI (NCI-H460 lung): 37.5 µM
GI50 (MDA-MB-231 breast): 3.43 µM
TGI (MDA-MB-231 breast): 12.3 µM
GI50 (HOP-62 NSCLC): 22.2 µM
TGI (HOP-62 NSCLC): 54.4 µM
GI50 (KM12 colon): 17.2 µM
TGI (KM12 colon): 33.6 µM
GI50 (TK-10 renal): 3.11 µM
TGI (TK-10 renal): 7.27 µM
GI50 (UACC-62 melanoma): 2350 nM
TGI (UACC-62 melanoma): 8.87 µM
GI50 (CAKI-1 renal): 3.06 µM
TGI (CAKI-1 renal): 10.6 µM
GI50 (U251 CNS): 20.7 µM
TGI (U251 CNS): 60.2 µM
GI50 (DU-145 prostate): 5.56 µM
TGI (DU-145 prostate): 18.4 µM
GI50 (NCI/ADR-RES ovarian): 2310 nM
TGI (NCI/ADR-RES ovarian): 5.95 µM
GI50 (RPMI-8226 leukemia): 3.44 µM
TGI (RPMI-8226 leukemia): 13.1 µM
GI50 (NCI-H23 lung): 7.93 µM
TGI (NCI-H23 lung): 23.9 µM
GI50 (ACHN renal): 1860 nM
TGI (ACHN renal): 3.55 µM
GI50 (UACC-257 melanoma): 2570 nM
TGI (UACC-257 melanoma): 11.1 µM
GI50 (LOX IMVI melanoma): 1780 nM
TGI (LOX IMVI melanoma): 3.91 µM
GI50 (SW-620 colon): 1830 nM
TGI (SW-620 colon): 3.92 µM
GI50 (A549 NSCLC): 30.7 µM
TGI (A549 NSCLC): > 100 µM
GI50 (T-47D breast): 2190 nM
TGI (T-47D breast): 7.23 µM
GI50 (IGROV1 ovarian): 18.5 µM
TGI (IGROV1 ovarian): 38.8 µM
GI50 (UO-31 renal): 2820 nM
TGI (UO-31 renal): 10.9 µM
GI50 (SK-MEL-28 melanoma): 1820 nM
TGI (SK-MEL-28 melanoma): 3.85 µM
GI50 (HL-60(TB) leukemia): 1710 nM
TGI (HL-60(TB) leukemia): 5.89 µM
GI50 (MDA-MB-435): 3.31 µM
TGI (MDA-MB-435): 14.5 µM
GI50 (RXF 393 renal): 1060 nM
TGI (RXF 393 renal): 2370 nM
GI50 (HCT-15 colon): 1560 nM
TGI (HCT-15 colon): 3.73 µM
GI50 (HOP-92 NSCLC): 3.37 µM
TGI (HOP-92 NSCLC): 10.7 µM
GI50 (MOLT-4 leukemia): 1920 nM
TGI (MOLT-4 leukemia): 10.3 µM
GI50 (SF-295 CNS): 15.6 µM
TGI (SF-295 CNS): 33.2 µM
GI50 (MDA-MB-468 breast): 1240 nM
TGI (MDA-MB-468 breast): 2990 nM
GI50 (NCI-H522 lung): 505 nM
TGI (NCI-H522 lung): 1860 nM
